The subject of assay [1] is S. pneumoniae encapsulated serotype 2 strain D39. Nature of the assay: Inhibition of S. pneumoniae adhesion to A549 cells, strain D39. Format: cell-based, Streptococcus pneumoniae. As to conditions: p<0.001. As to the method: (§1) Inhibition of S. pneumoniae adhesion to A549 cells by addition of phages: A549 cells (type II epithelial lung carcinoma cells; ATCC, Rockville, Md., USA) were grown in DMEM medium supplemented with 10% foetal calf serum with penicillin and streptomycin (100 μg/ml each) at 37° C. in a humidified incubator. A549 cells (2.5×10^4/well) were cultured on fibronectin coated plates, to increase A549 cell adhesion to the wells and prevent their detachment during washings, in the absence of antibiotic for 24 hours at which time the cells reached confluence (5×10^4 cells/well on average). The plates were blocked with 1% gelatine for 1 hour and 10^6 CFU bacteria were added per well. The adhesion of S. pneumoniae to uncoated plates was negligible (<80 CFU/ml). The number of bacteria that adhered to fibronectin coated plates (8000±100 SD CFU/ml on average) was subtracted afterwards to determine the net number of bacteria that adhered to the A549 cells only. rFBA at the denoted concentrations (ranging from 5-30 μg/ml) was added to the cultured cells and incubated for an hour. Following extensive washings S. pneumoniae (10^6 CFU) were added for 1 hour incubation. […]
(§2) The ability of FC derived synthetic peptide to interfere in S. pneumoniae adhesion to A459 cells was analyzed. […]

Assay [2] relates to Unencapsulated S. pneumoniae serotype 3 strain 3.8DW. The experiment in a line: Inhibition of S. pneumoniae adhesion to A549 cells, strain 3.8DW. Format: cell-based, Streptococcus pneumoniae. As to conditions: 20 μg/well; FIG. 3B. As to the method: as §1, with “incubation. To identify phages able to interfere in bacterial adhesion the bacteria were preincubated with the phages for 1 hour centrifuged and added to the cultured cells.” for “incubation.”

The subject of assay [3] is S. pneumoniae unencapsulated serotype 2 strain R6. Nature of the assay: Inhibition of S. pneumoniae adhesion to A549 cells, strain R6. Format: cell-based, Streptococcus pneumoniae. As to the method:
as §1, §2

The test system of assay [4] is S. pneumoniae serotype 3 strain WU2. Nature of the assay: Intranasal inoculation mouse model: nasopharyngeal and lung colonization. As to conditions: 10^7 bacteria. The class given is in vivo, BALB/c mice.
Assay [5] shares this test system. The experiment in a line: Intraperitoneal lethal dose systemic infection (sepsis) mouse model. The class given is in vivo, BALB/c mice. The source says: 1) A lethal dose of S. pneumoniae serotype 3 strain WU2 (100 CFU) was used in this experiment. Bacteria were either untreated or treated ex-vivo for 1 hr with FCRP and used to inoculate intraperitoneally 7 weeks old BALB/c mice.
2) A lethal dose of S. pneumoniae serotype 3 strain WU2 (100 CFU) was used in this experiment. Bacteria were co-administered intraperitonealy to 7 weeks old BALB/c mice in the presence and absence of FCRP. […] Furthermore, in mice infected in the absence of FCRP bacteria could be found in the spleens of 100% of the (FIG. 15B) mice.
3) In a similar experiment, the mice were inoculated with bacteria in the presence and absence of FCRP and the mice were monitored for their survival.

In assay [6] the test system is S. pneumoniae encapsulated serotype 3 strain WU2. Nature of the assay: Inhibition of S. pneumoniae adhesion to A549 cells, strain WU2. As to conditions: 15 μg/well; FIG. 3A. Format: cell-based, Streptococcus pneumoniae. Here is the method: as §1, with “incubation. To identify phages able to interfere in bacterial adhesion the bacteria were preincubated with the phages for 1 hour centrifuged and added to the cultured cells.” for “incubation.”

Turning to “H-Ala-Asp-Ser-Asp-Ser-Asp-Ser-Asp-Leu-Ser-Leu-Glu-Glu-Glu-Arg-OH (H-ADSDSDSDLSLEEER-OH; listed as Homo sapiens) [FCRP, 15 amino acid peptide from Flamingo-cadherin]”, the “inhibition of adhesion to A549” value in assay [1] (5 μg/well) is “significantly”; in assay [3] (5 μg/well, p<0.001) it was “significantly”. Besides, the “inhibition of adhesion to A549 cells” value was 90% in assay [1] (20 μg/well) and 75% in assay [3] (15 μg/well). Moreover, the maximal adhesion inhibition in assay [2] was found to be 41%. Also, the “bacterial load (FIG. 13A)” value in assay [4] (one post inoculation treatment, 3 and 48 hrs) is recorded as “reduced bacterial load significantly”. In addition, the “bacterial load in lungs (FIG. 13B)” value in assay [4] (post inoculation treatment, 24 hour) was “clear reduction in bacterial load”. Besides, the survival rate entry in assay [5] (100 CFU i.p., bacteria treated ex-vivo 1 hr, FIG. 14, p<0.05) is listed as “increased the survival rate of the mice significantly”. The “bacteria in the spleens” value in assay [5] (100 CFU i.p., co-administered, FIG. 15) is listed as “no bacteria could be recovered from the spleens”. In addition, the survival entry in assay [5] (lethal dose i.p., co-administration, FIG. 16, p<0.001) was “significant increase in survival”. Moreover, in assay [6], the “maximal inhibition of adhesion to A549 cells” value was 80%.
